The text below walks through data of patent US8877684B2, “Pesticidal composition comprising a synthetic compound useful as nodulation agent of leguminous plants and an insecticide compound” (Bayer CropScience AG, priority 2006, dated 2014).

Experiment [1] relates to Myzus persicae. As to the kind of experiment: Myzus persicae test: cabbage leaves infested with green peach aphid dipped into the preparation. As to conditions: foliar, 96 h, leaf dip, after 4 d. Type of experiment: in vivo. How it is done:
(§1) The expected efficacy of a given combination of two compounds is calculated as follows (see Colby, S. R., “Calculating Synergistic and antagonistic Responses of Herbicide Combinations”, Weeds 15, pp. 20-22, 1967):
(§2) • X is the efficacy expressed in % mortality of the untreated control for test compound A at a concentration of m ppm respectively m g/ha; • Y is the efficacy expressed in % mortality of the untreated control for test compound B at a concentration of n ppm respectively n g/ha; • E is the efficacy expressed in % mortality of the untreated control using the mixture of A and B at m and n ppm respectively m and n g/ha; then is
(§3) If the observed insecticidal efficacy of the combination is higher than the one calculated as “E”, then the combination of the two compounds is more than additive, i.e., there is a synergistic effect.
To produce a suitable preparation of active compound, 1 part by weight of active compound is mixed with the stated amount of solvent and emulsifier, and the concentrate is diluted with emulsifier-containing water to the desired concentration. Cabbage leaves (Brassica oleracea) which are heavily infested by the green peach aphid (Myzus persicae) are treated by being dipped into the preparation of the active compound of the desired concentration.
(§4) After the specified period of time, the mortality in % is determined. […]

The subject of experiment [2] is Phaedon cochleariae. Kind of experiment: Phaedon cochleariae test: dipped cabbage leaves infested with mustard beetle larvae. Type of experiment: in vivo. As to conditions: foliar, 96 h, leaf dip, after 4 d. How it is done: as §1, §2, §3
To produce a suitable preparation of active compound, 1 part by weight of active compound is mixed with the stated amount of solvent and emulsifier, and the concentrate is diluted with emulsifier-containing water to the desired concentration. Cabbage leaves (Brassica oleracea) are treated by being dipped into the preparation of the active compound of the desired concentration and are infested with larvae of the mustard beetle (Phaedon cochleariae) as long as the leaves are still moist.
as §4

By mortality is commonly meant the share of the test organisms that died. Regarding `O=[N+]([O-])NC1=NCCN1Cc1ccc(Cl)nc1` [Imidacloprid], the mortality at 0.16 ppm in experiment [1] was 10%. The mortality at 20 ppm in experiment [2] stood at 70%.
